Laboratory results from PubChem BioAssay AID1919014 (Molecular Pharmacology Branch, DTP, NCI, 2023).
Several values for one entry are separate records, joined by “and”; a condition that tells them apart may be missing. Identical values can stand only once.

Tested on: NCI-H1341 complex spheroids, percent test/control
Experiment: Anticancer human tumor NCI-H1341 cell line growth inhibition [AhR];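 also: spheroids exposed to agents for seven days before readout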
Details: for viability, T/C: stronger effect = lower value
Excerpt: Multicellular complex tumor spheroid response to aryl hydrocarbon receptor antagonists in combination with a variety of drugs and investigational agents in selected tumor cell lines
The current study was undertaken to assess response to aryl hydrocarbon receptor antagonists in combination with standard-of-care drugs and investigational agents in solid tumor complex spheroid models. Complex spheroids include a stromal component modeled by human endothelial cells (HUVEC) and fibroblasts modeled by human mesenchymal stem cells (MSCs). The concentration ranges selected for each drug and investigational agent were based upon clinically achievable concentrations if the clinical Cmax of the agent was known.
Compounds. The drugs and investigational agents: BAY 2416964 (NSC825713), GNF351 (NSC835774), CH-223191 (NSC835775), CPI-455 (NSC825282), aza-TdCyd (NSC777586), decitabine (NSC127716), belinostat (NSC758774), entinostat (NSC756642), pevonedistat (NSC761192), tazemetostat (NSC777109), talazoparib (NSC765396), olaparib (NSC753686), selinexor (NSC780203), nedisertib (M3814, NSC802822), bortezomib (NSC756655), venetoclax (NSC766270), doxorubicin (NSC123127), elimusertib (BAY189344, NSC800525), ceralasertib (AZD6738, NSC777638), TAK-243 (NSC785004), alisertib (NSC759677), etoposide (NSC141540), topotecan (NSC609699), eribulin (NSC707389), gemcitabine (NSC613327), carboplatin (NSC241240), cisplatin (NSC119875), and SN-38 (NSC673596) were obtained from the National Cancer Institute (NCI) Developmental Therapeutics Program Chemical Repository (32). The FDA-approved anticancer drug set is available from the Developmental Therapeutics Program at https://dtp.cancer.gov/organization/dscb/obtaining/available plates.htm. […] The stock solutions were prepared in dimethyl sulfoxide (DMSO, Sigma-Aldrich, St. Louis, MO, cat. D2650), except for the platinum compounds which were prepared in saline (Quality Biological, Gaithersburg, MD, cat. 114-055-101), at 800-fold the tested concentration and stored at -70 degrees C prior to their use. All drugs and investigational agents were tested over a range starting from a high concentration at or near the clinical Cmax and decreasing in half-log increments. If the clinical Cmax for an agent had not been determined, the highest concentration tested was 10 microM (Table 1).
Cell Culture. All cells were maintained in an incubator at 37 degrees C and 5% CO2 with 95% humidity. The PDC lines were cultured according to standard operating procedures established by the NCI PDMR (https://pdmr.cancer.gov). Briefly, all PDCs were thawed and cultured in Matrigel-coated flasks prepared with a working solution of 1X Ham's F-12 nutrient mix, without supplementation (Invitrogen, Waltham, MA, cat. 11765054), 100 U/mL penicillin-streptomycin (Invitrogen, cat. 15140122), and 2.5% Matrigel (Corning Inc., Corning, NY, cat. 354248) for the first three passages. All PDCs were cultured in complete DMEM/F-12 media containing advanced DMEM/F-12 (Invitrogen, cat. 12634028), 4.9% defined fetal bovine serum, heat inactivated (HyClone Laboratories Inc., Logan, UT, cat. SH30070.03HI), 389 ng/mL hydrocortisone (Sigma-Aldrich, cat. H4001), 9.7 ng/mL human EGF recombinant protein (Invitrogen, cat. PHG0313), 23.4 microg/mL adenine (Sigma-Aldrich, cat. A2786), 97.3 U/mL penicillin-streptomycin (Invitrogen, cat. 15140122), 1.9 mM L-glutamine (Invitrogen, cat. 25030081), and 9.7 microM Y-27632 dihydrochloride (Tocris Bioscience, Bristol, United Kingdom, cat. 1254). The PDCs were cultured in complete DMEM/F12 media without 10 microM Y-27632 dihydrochloride for at least two passages prior to the screen. The established cell lines NCI-H1341 and […] were cultured in DMEM/F-12, HEPES (Invitrogen, cat. 11330032), 5% defined fetal bovine serum (HyClone Laboratories Inc., cat. SH30070.03), ITS premix universal culture supplement [insulin (5 microg/mL), transferrin (5 microg/mL), and selenious acid (5 ng/mL)] […]

[1] = curve of first compound, second compound 0.1 µM
[2] = curve of first compound, second compound 0.316 µM
[3] = curve of first compound, second compound 1 µM
[4] = curve of first compound, second compound 3.16 µM
[5] = curve of first compound, second compound 10 µM

In the case of CCc1c2c(nc3ccc(O)cc13)-c1cc3c(c(=O)n1C2)COC(=O)[C@]3(O)CC + Cc1cncc(-c2nc(NCCc3c[nH]c4ccccc34)c3ncn(C(C)C)c3n2)c1, the IC50 [1] is reported as 7.13 nM, the IC50 [2] is reported as 3.57 nM and the IC50 [3] is reported as < 0.949 nM. For the same compound, the IC50 [4] was < 0.949 nM, the IC50 [5] was < 0.949 nM and the viability, T/C (second compound 0.1 µM, first compound 0.000949 µM) was 69.6%. For the same compound, the viability, T/C (second compound 0.1 µM, first compound 0.003 µM) was 65.8%, the viability, T/C (second compound 0.1 µM, first compound 0.00949 µM) was 41.9% and the viability, T/C (second compound 0.1 µM, first compound 0.03 µM) was 31.9%. It also gave a viability, T/C (second compound 0.1 µM, first compound 0.0949 µM) of 25.2%, a viability, T/C (second compound 0.1 µM, first compound 0.3 µM) of 11.9% and a viability, T/C (second compound 0.316 µM, first compound 0.000949 µM) of 63.2%. For the same compound, the viability, T/C (second compound 0.316 µM, first compound 0.003 µM) was 55.8%, the viability, T/C (second compound 0.316 µM, first compound 0.00949 µM) was 33.8% and the viability, T/C (second compound 0.316 µM, first compound 0.03 µM) was 31.8%. For the same compound, the viability, T/C (second compound 0.316 µM, first compound 0.0949 µM) was 22.9%, the viability, T/C (second compound 0.316 µM, first compound 0.3 µM) was 10% and the viability, T/C (second compound 1 µM, first compound 0.000949 µM) was 46.1%. The viability, T/C (second compound 1 µM, first compound 0.003 µM) was 45.6%, the viability, T/C (second compound 1 µM, first compound 0.00949 µM) was 36.4% and the viability, T/C (second compound 1 µM, first compound 0.03 µM) was 31.7%. It also gave a viability, T/C (second compound 1 µM, first compound 0.0949 µM) of 20.4%, a viability, T/C (second compound 1 µM, first compound 0.3 µM) of 8.02% and a viability, T/C (second compound 3.16 µM, first compound 0.000949 µM) of 46%. The viability, T/C (second compound 3.16 µM, first compound 0.003 µM) was 38.2%, the viability, T/C (second compound 3.16 µM, first compound 0.00949 µM) was 34.6% and the viability, T/C (second compound 3.16 µM, first compound 0.03 µM) was 26.3%. For the same compound, the viability, T/C (second compound 3.16 µM, first compound 0.0949 µM) was 15.2%, the viability, T/C (second compound 3.16 µM, first compound 0.3 µM) was 5.83% and the viability, T/C (second compound 10 µM, first compound 0.000949 µM) was 15.2%. The viability, T/C (second compound 10 µM, first compound 0.003 µM) was 13%, the viability, T/C (second compound 10 µM, first compound 0.00949 µM) was 14.9% and the viability, T/C (second compound 10 µM, first compound 0.03 µM) was 8.23%. The viability, T/C (second compound 10 µM, first compound 0.0949 µM) was 4.28% and the viability, T/C (second compound 10 µM, first compound 0.3 µM) was 1.78%.

For CC[C@@]1(O)C(=O)OCc2c1cc1n(c2=O)Cc2cc3c(CN(C)C)c(O)ccc3nc2-1 + Cc1ccccc1N=Nc1ccc(NC(=O)c2ccnn2C)c(C)c1, the IC50 [1] was 59.1 nM, the IC50 [2] was > 100 nM and the IC50 [3] was 67.1 nM. For the same compound, the IC50 [4] was > 100 nM, the IC50 [5] was 35.2 nM and the viability, T/C (second compound 0.1 µM, first compound 0.000316 µM) was 103%. The viability, T/C (second compound 0.1 µM, first compound 0.001 µM) was 99.8%, the viability, T/C (second compound 0.1 µM, first compound 0.00316 µM) was 91.1% and the viability, T/C (second compound 0.1 µM, first compound 0.01 µM) was 80.2%. For the same compound, the viability, T/C (second compound 0.1 µM, first compound 0.0316 µM) was 51.8%, the viability, T/C (second compound 0.1 µM, first compound 0.1 µM) was 47.5% and the viability, T/C (second compound 0.316 µM, first compound 0.000316 µM) was 99.5%. The viability, T/C (second compound 0.316 µM, first compound 0.001 µM) was 83.4%, the viability, T/C (second compound 0.316 µM, first compound 0.00316 µM) was 97.7% and the viability, T/C (second compound 0.316 µM, first compound 0.01 µM) was 74.6%. For the same compound, the viability, T/C (second compound 0.316 µM, first compound 0.0316 µM) was 49.9%, the viability, T/C (second compound 0.316 µM, first compound 0.1 µM) was 52.9% and the viability, T/C (second compound 1 µM, first compound 0.000316 µM) was 97.4%. For the same compound, the viability, T/C (second compound 1 µM, first compound 0.001 µM) was 83.5%, the viability, T/C (second compound 1 µM, first compound 0.00316 µM) was 82.3% and the viability, T/C (second compound 1 µM, first compound 0.01 µM) was 70.2%. It also gave a viability, T/C (second compound 1 µM, first compound 0.0316 µM) of 57.2%, a viability, T/C (second compound 1 µM, first compound 0.1 µM) of 45.8% and a viability, T/C (second compound 3.16 µM, first compound 0.000316 µM) of 76.6%. For the same compound, the viability, T/C (second compound 3.16 µM, first compound 0.001 µM) was 94.7%, the viability, T/C (second compound 3.16 µM, first compound 0.00316 µM) was 65.5% and the viability, T/C (second compound 3.16 µM, first compound 0.01 µM) was 64.2%. It also gave a viability, T/C (second compound 3.16 µM, first compound 0.0316 µM) of 45.2%, a viability, T/C (second compound 3.16 µM, first compound 0.1 µM) of 52.9% and a viability, T/C (second compound 10 µM, first compound 0.000316 µM) of 46.4%. For the same compound, the viability, T/C (second compound 10 µM, first compound 0.001 µM) was 58%, the viability, T/C (second compound 10 µM, first compound 0.00316 µM) was 51.6% and the viability, T/C (second compound 10 µM, first compound 0.01 µM) was 49.8%. For the same compound, the viability, T/C (second compound 10 µM, first compound 0.0316 µM) was 49.6% and the viability, T/C (second compound 10 µM, first compound 0.1 µM) was 48.6%.

In the case of COc1cccc2c1C(=O)c1c(O)c3c(c(O)c1C2=O)CC(O)(C(=O)CO)CC3OC1CC(N)C(O)C(C)O1 (configuration not stated), the viability, T/C (compound 0.0316 µM) is reported as 49.4% and 58.5% and 51.1%, the viability, T/C (compound 0.1 µM) is reported as 48.7% and 55.5% and 55.7% and the viability, T/C (compound 0.316 µM) is reported as 35.4% and 44.5% and 30.1%. For the same compound, the viability, T/C (compound 1 µM) was 13.8% and 18.2% and 6.98%, the viability, T/C (compound 3.16 µM) was 0.92% and 1.68% and 0.74% and the viability, T/C (compound 10 µM) was 4.71% and 5.46% and 2.82%. The IC50 (curve of compound) was < 31.6 nM and 186 nM and 114 nM.
